These results are taken from US8604048B2, “Pyridocarbazole type compounds and applications thereof” (Centre National de la Recherche Scientifique, priority 2009, dated 2013).

pIC50: −log10 of the molar value.

One assay relates to MES-SA DX5 cells. Description: Cell growth test (MTT), MES-SA DX5. The format is cell-based. The conditions noted are these: Homo sapiens; MES-SA DX5 (multi-drug resistant, P-glycoprotein), MTT test after 48 h; read-out: IC50 (concentration necessary to inhibit 50% of cell growth). Here is the method: The cell growth tests are carried out in transparent 96-well microplates (Greiner) after having seeded 100 μl/well of a cell solution having 2·10^5 cells/ml to 5·10^5 cells/ml (depending on the cell lines). After incubating for 24 h at 37° C. with 5% CO2, the culture medium is removed and replaced with solutions of the molecule to be tested at various concentrations. The cells are incubated with these molecules for an additional 48 h at 37° C. with 5% CO2. After elimination of the medium, the cells are washed with blank RPMI (Gibco, Invitrogen) then incubated with 3-(4,5-dimethylthiazol-2-yl)-2,5-diphenyltetrazolium bromide or MTT (0.5 mg/ml final concentration) for 4 h at 37° C. with 5% CO2. MTT (Sigma Aldrich) makes it possible to estimate the viability of the cells by measuring the activity of a mitochondrial enzyme. Indeed, in living cells, mitochondrial dehydrogenases are capable of cleaving the tetrazolium ring, thus leading to the formation of formazan crystals that are insoluble in an aqueous medium. These crystals are dissolved with the addition of a solubilizing solution (isopropanol, 10% Triton X100, 0.1 N HCl). After stirring, the absorbance is measured at 570 nm using the FLUOstar OPTIMA microplate reader. […]
The viability of the cells was evaluated using an MTT test after 48 h of exposure with various concentrations of molecules (from 100 μM to 0.001 μM). […]
Background: Tetrazolium assays rely on reduction of a dye to a coloured formazan, in cell work by metabolically active cells.

Another assay deals with purified tubulin. Description: In vitro assembly of purified tubulin. The class given is biochemical. Particulars: tubulin 1 mg/ml; Compound 1 at 25, 50, 100 μM. On the procedure:
FIG. 5 compares the effects of the Compound 1 of the invention with the effect of paclitaxel (Taxol®) on the assembly of the tubulin purified in vitro. Purified tubulin (1 mg/ml) is incubated in PEM buffer in the presence of GTP (1 mM), MgCl2 (5 mM), DAPI (10 μM) at 37° C. The effect of Compound 1 of the invention at various concentrations (×25 μM, ⊚ 50 μM and Δ 100 μM) is compared to that of paclitaxel (Taxol®) (▪) and of DMSO ( ? );
In order to know whether Compound 1 of the invention exerts its stabilizing effect via a direct action on tubulin, such as paclitaxel does, or by means an effector, its effect on the in vitro assembly of tubulin in microtubules has been analyzed. The first experiments were carried out on purified tubulin (1 mg/ml).

Assay [1] concerns microtubules of HeLa cells. Description: Stability of the microtubules in cells, qualitative double-blind evaluation using a microscope. The format is cell-based, Human. Particulars: general statement. Here is the method:
6. a step of analysis of the effect of the compound to be tested on the dynamics of the microtubule network. For this, HeLa cells are incubated for 2 h with the compound to be tested, then optionally treated with 10 μM nocodazole for 30 minutes.
Cells grown for two days on glass coverslips, were incubated 3 minutes at 37° C. with or without OPT buffer (Pipes 80 mM, EGTA 1 mM, MgCl 1 mM, Triton X-100 0.5% and glycerol 10% pH 6.8), and then fixed in methanol previously maintained at −20° C. for 10 minutes. The cells are then washed with PBS/0.1% Tween® 20 and incubated for 15 minutes minimum at room temperature with the appropriate primary antibodies (cf. the antibodies from Table III) diluted in a solution of PBS/0.3% BSA/0.02% NaN3. The cells are then washed 3 times with PBS/0.1% Tween® 20. They are incubated for 15 minutes at room temperature with a solution of secondary antibodies (cf. the antibodies from Table IV) and of Hoechst at a final concentration of 1 μg/ml, diluted in PBS/0.3% BSA/0.02% NaN3. […]
HeLa cells are seeded in black-bottomed black 96-well microplates (Greiner 655086) by distributing 90 μl per well of a cell solution containing 40 000 cells/ml, and incubated at 37° C. with 5% CO2. […] The various fluorescence intensities are measured using the FLUOstar OPTIMA reader. […]

Turning to `Cc1c2cc[nH]c(=O)c2c(C)c2c1[nH]c1ccc(OC(=O)c3ccccc3)cc12` [Compound 1, 9-benzoyloxy-5,11-dimethyl-2H,6H-pyrido[4,3-b]carbazol-1-one], the pIC50 with MES-SA DX5 cells is 4.56. Also, the “Assembly of purified tubulin in vitro” value with purified tubulin was “No assembly is observed”.

Take `Cc1c2ccncc2c(C)c2c1[nH]c1ccccc12` [ellipticine]: the “Effect on the stabilization of cell microtubules” value in assay [1] was “does not have any effect”.
